Experimental data published in paper PMC6656724 (Communications Biology, 2019).
Values joined by “and” are separate entries in the source; they are usually repeats but may differ in a detail not shown here. Equal values may be shown once.

Key:
[1] = tested on: KMO activity in the striatum; assay: De novo 3-HK synthesis after intrastriatal [5-3H]-kynurenine; type: in vivo, Sprague–Dawley rats
Protocol: The prodrug (5 mg/kg) was administered intravenously to rats, immediately followed by an intrastriatal infusion of [^3H]-KYN. Tritiated KP metabolites were analysed after 1 h. A significant ~70% reduction (P < 0.01) in [^3H]-3-HK was observed (Fig. 3f) in parallel with minor increases in [^3H]-QUIN and […] (data not shown)—mirroring the results using a focal intracerebral injection of a KMO inhibitor[17].
The radioactive tracer method previously described by Guidetti et al. (1995)[31] was used to study acute KP metabolism in the brain in vivo. To this end, adult male Sprague–Dawley rats (weighing 270–300 g) were anesthetized with isoflurane using a vaporiser (induction dose 5%, maintenance dose 2%, v/v, in 100% oxygen) and placed in a stereotaxic frame. […] After thawing, tritiated KP metabolites were detected and analysed as described previously. The production of newly formed [^3H]-KYNA, [^3H]-3-HK and [^3H]-QUIN was expressed as a percentage of the total radioactivity recovered per striatum. […] The mobile phase was flown at 1.2 ml/min (Waters 515 HPLC Pump) through YMC-Pack Pro C18 (250 × 4.6 mm) column and detected with UV (Applied Biosystems 785A Absorbance Detector) at 254 nm then mixed with LabLogic FlowLogic U scintillation fluid flowing at 2.7 mL/min and radiation was detected (Berthold Technologies FlowStar LB514).

[2] = Plasma protein binding (equilibrium dialysis); type: in vitro ADME; settings: female, CD1, mouse, read-out: Fraction unbound (blood)
Protocol: for 1 minute and then centrifuged at 3000 rpm in 96-well blocks for 15 minutes (Allegra X12-R, Beckman Coulter, USA). All samples were analysed by means of UPLC/MS/MS on a Xevo TQs micro Mass Spectrometer (Waters Corporation, USA).
The unbound fraction was determined as the ratio of the peak area in artificial CSF to that in brain, with correction for dilution factor according to equation (5)21, […]
((1/f ! ,!""!#$%& ) − 1) + 1/D where D = dilution factor in brain homogenate and fu,apparent is the measured free fraction of diluted brain homogenate.
3.9 Plasma protein binding
In brief, a 96 well equilibrium dialysis apparatus was used to determine the free fraction in plasma for inhibitor 1 (HT Dialysis LLC, Gales Ferry, CT). Membranes (12-14 kDA cut-off) were conditioned in deionised water for 60 minutes, followed by conditioning in 80:20 deionised water:ethanol for 20 minutes, and then rinsed in isotonic buffer before use. Female CD1 mouse plasma was removed from the freezer and allowed to thaw on the day of experiment. […] All samples were analysed by UPLC-MS/MS on a Xevo TQs micro Mass Spectrometer (Waters
Corporation, USA). The unbound fraction was determined as the ratio of the peak area in buffer to that in plasma.

SMILES | Reduction in [3H]-3-HK ([1]; rat striatum, 5 mg/kg i.v., 1 h, vs vehicle) | Percentage of [5-3H]-KYN that is metabolized into [3H]-3-HK ([1]; striatum of awake rats, 1 h after 5 mg/kg i.v., single rats, listed as Prodrug 1b) | fraction unbound at 5 h, 10 ug/mL [2]
CCOC(=O)CN1C(=O)COc2cc(C)c(Cl)c(C)c21 [1b] | ~ 70% | 0.72% and 0.39% and 1.91% and 0.11% and 1.44% and 0.83% and 2.24% and 1.06% and 1.38% and 0.19% | 
Cc1cc2c(c(C)c1Cl)N(CC(=O)O)C(=O)CO2 [compound 1, (6-chloro-5,7-dimethyl-3-oxo-2,3-dihydro-4H-1,4-benzoxazin-4-yl) acetic acid] |  |  | 0.04
